Test system: weaned piglet
Details: piglets
Description: According to the weight, sex, litter, the 60 weaned piglets were randomly divided into five groups. Group 1 is the control group using corn-soybean meal-dray whey powder diet with adding 150 mg/kg of basic copper chloride but without adding selenium. Group 2 and 3 are testing group using corn-soybean meal-dray whey powder diet with adding 0.3 mg/kg and 0.5 mg/kg of sodium selenite respectively, and adding 150 mg/kg of basic copper chloride. […] The testing period is 35 days, including 7 days of pre-test period and 28 days of formal test period.

O=[Se](O)O [sodium selenite]
selenium level of kidney compared with control group (0.3 and 0.5 mg/kg in diet): significantly higher | selenium level of liver compared with control group (0.3 and 0.5 mg/kg in diet): significantly higher | copper content in liver among groups (all groups): almost the same

— US8518466B2 (Shenzhen Hazardous Waste Treatment Station Ltd., priority 2008, dated 2013)
